# According to patent US20040014812A1, “Remedies for keratoconjunctival diseases containing farnesyl acetate as the active ingredient” (SANTEN PHARMACEUTICAL CO. LTD, priority 2000, published 2004):
# System: lacrimal gland-nictitating membrane-harderian gland-enucleated rabbit dry eye models
# Experiment: Rose bengal intake of cornea in rabbit dry eye models after instillation of ophthalmic solutions
# Assay type: in vivo
# Conditions: rabbit dry eye model
# Method: An effect of farnesylacetic acid on dry eye was studied by using lacrimal gland-nictitating membrane-harderian gland-enucleated rabbit dry eye models.
# Lacrimal gland-nictitating membrane-harderian gland-enucleated rabbit dry eye models were prepared by reference to the method of Girbard et al. (Invest. Ophthalmol. Vis. Sci., 28: 225-228 (1987)). Namely, a 7:1 mixture of a 5% ketamine hydrochloride injection and a 2% xylazine hydrochloride injection was injected into rabbits in an amount of 1 ml/kg to anesthetize the rabbits systemically. A 0.4% oxybuprocaine hydrochloride ophthalmic solution was instilled into the rabbits, lower lid skin was dissected in length of about 5 mm along an orbital bone, and then a lacrimal gland was enucleated from the outside of a conjunctival sac. The skin at the dissected site was sutured with 4-0 sutures, and an ofloxacin eye ointment was applied to the sutured site. Next, a harderian gland was enucleated while drawing it out with a nictitating membrane. Finally, the ofloxacin eye ointment was applied to the enucleated site.
# Farnesylacetic acid ophthalmic solutions were prepared by diluting farnesylacetic acid with the following vehicle so that its concentrations were 0.75, 7.5 and 75 μM. A gefarnate ophthalmic solution was prepared by diluting gefarnate with the same vehicle so that its concentration was 7.5 mM. All the obtained ophthalmic solutions had pH of 7.4 and osmotic pressure of 1.0.
# Each farnesylacetic acid ophthalmic solution (50 μl) was instilled into the lacrimal gland-nictitating membrane-harderian gland-enucleated rabbits six times per day for two weeks (four rabbits and eight eyes per group. The vehicle and gefarnate were instilled similarly as a control group and a comparative group respectively.
# Effects on dry eye were evaluated by measuring rose bengal intake. A 7:1 mixture of a 5% ketamine hydrochloride injection and a 2% xylazine hydrochloride injection was injected into the rabbits in an amount of 1 ml/kg to anesthetize the rabbits systemically, then eyelids were opened with an eye speculum, and the conjunctival sacs were filled with physiological saline containing 1% rose bengal. The eyes were maintained for 10 seconds and then washed with physiological saline. A 5% pentobarbital injection was injected into the rabbits to euthanatize them, and eyeballs were enucleated. Corneal pieces were prepared with a trephine having an inner diameter of 8 mm, put into 1 ml of 2 M sodium hydroxide and allowed to stand under light resistance for one day to dissolve corneal tissues completely. Absorbance at a wavelength of 560 nm of the obtained tissue-dissolved solutions was measured with a spectrophotometer.
# Rose bengal stains a portion containing no mucin layer in keratoconjunctiva. […] Accordingly, when the mucin layer decreases because of dry eye, rose bengal intake of the corneal tissues increases, and the absorbance of the tissue-dissolved solution increases.
Compound,"Effect compared with gefarnate (7.5 mM administration group) (75 μM administration group, about 1/100 of the gefarnate concentration)","Rose bengal intake compared with vehicle administration group (0.75, 7.5 and 75 μM administration groups)","Absorbance (560 nm) of corneal tissue-dissolved solution (rose bengal intake) (ophthalmic solution 0.75 μM, 50 μl instilled six times per day for two weeks)","Absorbance (560 nm) of corneal tissue-dissolved solution (rose bengal intake) (ophthalmic solution 7.5 μM, 50 μl instilled six times per day for two weeks)","Absorbance (560 nm) of corneal tissue-dissolved solution (rose bengal intake) (ophthalmic solution 75 μM, 50 μl instilled six times per day for two weeks)","Absorbance (560 nm) of corneal tissue-dissolved solution (rose bengal intake) (ophthalmic solution 7.5 mM, instilled six times per day for two weeks)"
"CC(C)=CCC/C(C)=C/CC/C(C)=C/CCC(=O)O [Farnesylacetic acid, farnesylacetic acid]",an effect equal to that of gefarnate,apparently less than that in the vehicle administration group,0.169,0.139,0.093,
"CC(C)=CCC/C(C)=C/CC/C(C)=C/CCC(=O)OC/C=C(\C)CCC=C(C)C [gefarnate, reference compound]",,,,,,0.075
